# Data from patent US20260234115A1, “LIPID COMPOUNDS, COMPOSITIONS, AND USES THEREOF” (Liberate Bio, Inc., priority 2023, published 2026).
# Marks after values point to notes of the source that are not given here.
# Tests used:
# mouse organs = experiment: In vivo activity screening in mice: organ mean total flux (p/s) of luciferase activity after injection of F2 LNP pools (Table 6, FIG. 7A-7C); conditions: luciferase mRNA
# Procedure, shortened: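 C57BL/6J mice given one tail-vein injection of pooled Formulation F2 LNPs carrying firefly luciferase mRNA (0.25-3 mg/kg) in PBS. At 4-6 h, s.c. D-luciferin given; organs imaged ex vivo by IVIS within 10-15 min, after saline cardiac perfusion. Mean total flux (p/s) per organ ROI.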
# [1] = Dynamic light scattering: LNP particle size and PDI; assay type: physicochemical; conditions: for PDI N/P:6 / Size (nm) N/P:6: LNP
# Procedure, shortened: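 The LNPs were made by microfluidic mixing of the lipids in ethanol with mRNA in pH 4.0 citrate, then dialyzed into PBS pH 7.4. They were diluted in PBS pH 7.4, and particle size and PDI were measured by dynamic light scattering.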
# [2] = Plate-based fluorescence (RiboGreen) assay: nucleic acid cargo content and encapsulation efficiency of LNPs; assay type: physicochemical; conditions: for EE (%) N/P:6: LNP
# Procedure, shortened: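 LNPs made by microfluidic mixing of ethanolic lipids with mRNA in pH 4.0 citrate, dialyzed into PBS pH 7.4. Cargo quantified by RiboGreen fluorescence against a standard curve: Triton-lysed samples give total, TE-only samples give free cargo; encapsulation efficiency from their ratio.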
# [3] = LNP compositions for Formulation F2 Study
# [4] = LNP compositions for in vivo mouse study, four formulations (F1-F4) pooled, or pools of four compounds
structure (smiles),measurement,setting,value
"CCCCC/C=C\CCOC(=O)CCCCC(=O)OCC(COC(=O)CCCCC(=O)OCC/C=C\CCCCC)(COC(=O)CCC(CCCCCC)OC(=O)NCCN1CCCC1)COC(=O)CC12CC3CC(CC(C3)C1)C2 (stereo not drawn) [Compound 14, O6-[2-[[2-(1-adamantyl)acetyl]oxymethyl]-2-[[6-[(Z)-non-3-enoxy]-6-oxo-hexanoyl]oxymethyl]-3-[4-(2-pyrrolidin-1-ylethylcarbamoyloxy)decanoyloxy]propyl]O1-[(Z)-non-3-enyl]hexanedioate]",Organ Mean Total Flux Femur,"mouse organs; Mouse 1, dose 0.3 mg/kg",9.3 p/s (×10^6)
same,Organ Mean Total Flux Heart,"mouse organs; Mouse 1, dose 0.3 mg/kg",1.8 p/s (×10^6)
same,Organ Mean Total Flux Kidney,"mouse organs; Mouse 1, dose 0.3 mg/kg",2.8 p/s (×10^6)
same,Organ Mean Total Flux Liver,"mouse organs; Mouse 1, dose 0.3 mg/kg",3910 p/s (×10^6)
same,Organ Mean Total Flux Lung,"mouse organs; Mouse 1, dose 0.3 mg/kg",31.9 p/s (×10^6)
same,Organ Mean Total Flux Muscle,"mouse organs; Mouse 1, dose 0.3 mg/kg",9.5 p/s (×10^6)
same,Organ Mean Total Flux Pancreas,"mouse organs; Mouse 1, dose 0.3 mg/kg",14.9 p/s (×10^6)
same,Organ Mean Total Flux Spleen,"mouse organs; Mouse 1, dose 0.3 mg/kg",31.5 p/s (×10^6)
same,Organ Mean Total Flux Femur,"mouse organs; Mouse 2, dose 1.0 mg/kg",62.6 p/s (×10^6)
same,Organ Mean Total Flux Heart,"mouse organs; Mouse 2, dose 1.0 mg/kg",5.9 p/s (×10^6)
same,Organ Mean Total Flux Kidney,"mouse organs; Mouse 2, dose 1.0 mg/kg",7.0 p/s (×10^6)
same,Organ Mean Total Flux Liver,"mouse organs; Mouse 2, dose 1.0 mg/kg",2883 p/s (×10^6)
same,Organ Mean Total Flux Lung,"mouse organs; Mouse 2, dose 1.0 mg/kg",96.9 p/s (×10^6)
same,Organ Mean Total Flux Muscle,"mouse organs; Mouse 2, dose 1.0 mg/kg",144.9 p/s (×10^6)
same,Organ Mean Total Flux Pancreas,"mouse organs; Mouse 2, dose 1.0 mg/kg",32.1 p/s (×10^6)
same,Organ Mean Total Flux Spleen,"mouse organs; Mouse 2, dose 1.0 mg/kg",107.0 p/s (×10^6)
same,Organ Mean Total Flux Femur,"mouse organs; Mouse 3, dose 1.0 mg/kg",41.8 p/s (×10^6)
same,Organ Mean Total Flux Heart,"mouse organs; Mouse 3, dose 1.0 mg/kg",8.6 p/s (×10^6)
same,Organ Mean Total Flux Kidney,"mouse organs; Mouse 3, dose 1.0 mg/kg",7.7 p/s (×10^6)
same,Organ Mean Total Flux Liver,"mouse organs; Mouse 3, dose 1.0 mg/kg",4307 p/s (×10^6)
same,Organ Mean Total Flux Lung,"mouse organs; Mouse 3, dose 1.0 mg/kg",49.2 p/s (×10^6)
same,Organ Mean Total Flux Muscle,"mouse organs; Mouse 3, dose 1.0 mg/kg",193.7 p/s (×10^6)
same,Organ Mean Total Flux Pancreas,"mouse organs; Mouse 3, dose 1.0 mg/kg",23.4 p/s (×10^6)
same,Organ Mean Total Flux Spleen,"mouse organs; Mouse 3, dose 1.0 mg/kg",123.8 p/s (×10^6)
same,Organ Mean Total Flux Femur,"mouse organs; Mouse 5, dose 0.5 mg/kg",11.9 p/s (×10^6)
same,Organ Mean Total Flux Heart,"mouse organs; Mouse 5, dose 0.5 mg/kg",4.4 p/s (×10^6)
same,Organ Mean Total Flux Kidney,"mouse organs; Mouse 5, dose 0.5 mg/kg",1.8 p/s (×10^6)
same,Organ Mean Total Flux Liver,"mouse organs; Mouse 5, dose 0.5 mg/kg",1303 p/s (×10^6)
same,Organ Mean Total Flux Lung,"mouse organs; Mouse 5, dose 0.5 mg/kg",18.9 p/s (×10^6)
same,Organ Mean Total Flux Muscle,"mouse organs; Mouse 5, dose 0.5 mg/kg",34.1 p/s (×10^6)
same,Organ Mean Total Flux Pancreas,"mouse organs; Mouse 5, dose 0.5 mg/kg",1.9 p/s (×10^6)
same,Organ Mean Total Flux Spleen,"mouse organs; Mouse 5, dose 0.5 mg/kg",20.8 p/s (×10^6)
same,Organ Mean Total Flux Femur,"mouse organs; Mouse 6, dose 0.5 mg/kg",9.1 p/s (×10^6)
same,Organ Mean Total Flux Heart,"mouse organs; Mouse 6, dose 0.5 mg/kg",1.6 p/s (×10^6)
same,Organ Mean Total Flux Kidney,"mouse organs; Mouse 6, dose 0.5 mg/kg",3.2 p/s (×10^6)
same,Organ Mean Total Flux Liver,"mouse organs; Mouse 6, dose 0.5 mg/kg",676.3 p/s (×10^6)
same,Organ Mean Total Flux Lung,"mouse organs; Mouse 6, dose 0.5 mg/kg",17.3 p/s (×10^6)
same,Organ Mean Total Flux Muscle,"mouse organs; Mouse 6, dose 0.5 mg/kg",27.6 p/s (×10^6)
same,Organ Mean Total Flux Pancreas,"mouse organs; Mouse 6, dose 0.5 mg/kg",14.7 p/s (×10^6)
same,Organ Mean Total Flux Spleen,"mouse organs; Mouse 6, dose 0.5 mg/kg",28.7 p/s (×10^6)
same,Organ Mean Total Flux Femur,"mouse organs; Mouse 9, dose 0.5 mg/kg",13.3 p/s (×10^6)
same,Organ Mean Total Flux Heart,"mouse organs; Mouse 9, dose 0.5 mg/kg",1.2 p/s (×10^6)
same,Organ Mean Total Flux Kidney,"mouse organs; Mouse 9, dose 0.5 mg/kg",2.5 p/s (×10^6)
same,Organ Mean Total Flux Liver,"mouse organs; Mouse 9, dose 0.5 mg/kg",721.0 p/s (×10^6)
same,Organ Mean Total Flux Lung,"mouse organs; Mouse 9, dose 0.5 mg/kg",10.4 p/s (×10^6)
same,Organ Mean Total Flux Muscle,"mouse organs; Mouse 9, dose 0.5 mg/kg",31.2 p/s (×10^6)
same,Organ Mean Total Flux Pancreas,"mouse organs; Mouse 9, dose 0.5 mg/kg",10.2 p/s (×10^6)
same,Organ Mean Total Flux Spleen,"mouse organs; Mouse 9, dose 0.5 mg/kg",32.2 p/s (×10^6)
same,Organ Mean Total Flux Femur,"mouse organs; Mouse 11, dose 0.5 mg/kg",10.1 p/s (×10^6)
same,Organ Mean Total Flux Heart,"mouse organs; Mouse 11, dose 0.5 mg/kg",1.8 p/s (×10^6)
same,Organ Mean Total Flux Kidney,"mouse organs; Mouse 11, dose 0.5 mg/kg",0.9 p/s (×10^6)
same,Organ Mean Total Flux Liver,"mouse organs; Mouse 11, dose 0.5 mg/kg",360.7 p/s (×10^6)
same,Organ Mean Total Flux Lung,"mouse organs; Mouse 11, dose 0.5 mg/kg",25.4 p/s (×10^6)
same,Organ Mean Total Flux Muscle,"mouse organs; Mouse 11, dose 0.5 mg/kg",24.2 p/s (×10^6)
same,Organ Mean Total Flux Pancreas,"mouse organs; Mouse 11, dose 0.5 mg/kg",4.2 p/s (×10^6)
same,Organ Mean Total Flux Spleen,"mouse organs; Mouse 11, dose 0.5 mg/kg",26.2 p/s (×10^6)
same,Organ Mean Total Flux Femur,"mouse organs; Mouse 12, dose 0.5 mg/kg",9.3 p/s (×10^6)
same,Organ Mean Total Flux Heart,"mouse organs; Mouse 12, dose 0.5 mg/kg",1.8 p/s (×10^6)
same,Organ Mean Total Flux Kidney,"mouse organs; Mouse 12, dose 0.5 mg/kg",2.2 p/s (×10^6)
same,Organ Mean Total Flux Liver,"mouse organs; Mouse 12, dose 0.5 mg/kg",585.3 p/s (×10^6)
same,Organ Mean Total Flux Lung,"mouse organs; Mouse 12, dose 0.5 mg/kg",32.4 p/s (×10^6)
same,Organ Mean Total Flux Muscle,"mouse organs; Mouse 12, dose 0.5 mg/kg",35.5 p/s (×10^6)
same,Organ Mean Total Flux Pancreas,"mouse organs; Mouse 12, dose 0.5 mg/kg",3.5 p/s (×10^6)
same,Organ Mean Total Flux Spleen,"mouse organs; Mouse 12, dose 0.5 mg/kg",21.1 p/s (×10^6)
same,Organ Mean Total Flux Femur,"mouse organs; Mouse 13, dose 0.5 mg/kg",8.3 p/s (×10^6)
same,Organ Mean Total Flux Heart,"mouse organs; Mouse 13, dose 0.5 mg/kg",1.1 p/s (×10^6)
same,Organ Mean Total Flux Kidney,"mouse organs; Mouse 13, dose 0.5 mg/kg",5.7 p/s (×10^6)
same,Organ Mean Total Flux Liver,"mouse organs; Mouse 13, dose 0.5 mg/kg",439.7 p/s (×10^6)
same,Organ Mean Total Flux Lung,"mouse organs; Mouse 13, dose 0.5 mg/kg",16.8 p/s (×10^6)
same,Organ Mean Total Flux Muscle,"mouse organs; Mouse 13, dose 0.5 mg/kg",16.7 p/s (×10^6)
same,Organ Mean Total Flux Pancreas,"mouse organs; Mouse 13, dose 0.5 mg/kg",5.3 p/s (×10^6)
same,Organ Mean Total Flux Spleen,"mouse organs; Mouse 13, dose 0.5 mg/kg",19.7 p/s (×10^6)
same,Organ Mean Total Flux Femur,"mouse organs; Mouse 14, dose 0.5 mg/kg",10.8 p/s (×10^6)
same,Organ Mean Total Flux Heart,"mouse organs; Mouse 14, dose 0.5 mg/kg",2.0 p/s (×10^6)
same,Organ Mean Total Flux Kidney,"mouse organs; Mouse 14, dose 0.5 mg/kg",4.6 p/s (×10^6)
same,Organ Mean Total Flux Liver,"mouse organs; Mouse 14, dose 0.5 mg/kg",240.7 p/s (×10^6)
same,Organ Mean Total Flux Lung,"mouse organs; Mouse 14, dose 0.5 mg/kg",12.6 p/s (×10^6)
same,Organ Mean Total Flux Muscle,"mouse organs; Mouse 14, dose 0.5 mg/kg",41.1 p/s (×10^6)
same,Organ Mean Total Flux Pancreas,"mouse organs; Mouse 14, dose 0.5 mg/kg",7.6 p/s (×10^6)
same,Organ Mean Total Flux Spleen,"mouse organs; Mouse 14, dose 0.5 mg/kg",24.0 p/s (×10^6)
same,PDI,[1]; [3],0.178
same,Particle Size (nm),[1]; [3],107.6 nm
same,Particle Size (nm),"[1]; LNP compositions for in vivo mouse study, four formulations (F1-F4) of the lipid compound pooled, or pools of four compounds (sixteen compositions)",82.9 nm
same,PDI,[1]; [4],0.106
same,PDI N/P:6,"[1]; Formulation F1, N/P 6",0.06
same,Size (nm) N/P:6,"[1]; Formulation F1, N/P 6",78 ± 2 nm
same,PDI N/P:6,"[1]; Formulation F2, N/P 6",0.07
same,Size (nm) N/P:6,"[1]; Formulation F2, N/P 6",90 ± 5 nm
same,PDI N/P:6,"[1]; Formulation F3, N/P 6",0.14
same,Size (nm) N/P:6,"[1]; Formulation F3, N/P 6",83 ± 1 nm
same,PDI N/P:6,"[1]; Formulation F4, N/P 6",0.09
same,Size (nm) N/P:6,"[1]; Formulation F4, N/P 6",68 ± 3 nm
same,EE %,[2]; [3],99%
same,EE %,[2]; [4],96%
same,mRNA Content,[2]; [4],93 µg/mL
same,EE (%) N/P:6,"[2]; Formulation F1, N/P 6",99%
same,EE (%) N/P:6,"[2]; Formulation F2, N/P 6",99%
same,EE (%) N/P:6,"[2]; Formulation F3, N/P 6",99%
same,EE (%) N/P:6,"[2]; Formulation F4, N/P 6",98%
